In patent publication US20250127912A1, “COMPOSITIONS FOR DELIVERY OF POLYNUCLEOTIDES” (miRecule, Inc., priority 2021, published 2025):
No end group written: not given here. PEG1000 = N-terminal 1 kDa PEG spacer; PEG5000 = N-terminal 5 kDa PEG spacer; PEG2000 = PEG polymer of 2000 Da

Legend:
[1] = Serum stability of miRNA mimic M30m3 alone or with cationic peptide/hybrid polymer in 5% human serum (TBE-urea gel); conditions: calculated based on first order decay comparing two time points; for Serum Stability at N/P1: M30m3 with polymer at N/P charge ratio 1, 37 C; for Serum Stability at N/P2: M30m3 with polymer at N/P charge ratio 2, 37 C
[2] = Biodistribution of IR750-NCD5 cetuximab conjugates in mice with orthotopic UM-SCC-1^luc tumors; conditions: 5 mg/kg IR750-NCD5 cetuximab conjugate, N/P of 1; 24 and 48 hours

Serum Stability at N/P1 [1] [h] | Serum Stability at N/P2 [1] [h] | Compound | delivery to the tumor (IR-750 fluorescence) [2] | liver and kidney delivery (IR-750 fluorescence) [2]
20.78 | 17.33 | N=C(N)NCCCCN [Agmatine, reference compound] |  | 
7.179 | 12.26 | N=C(N)NCCC[C@H](N)C(=O)O [Arginine, reference compound] |  | 
34.91 | 18.1 | N=C(N)NCCC[C@H](NC(=O)[C@H](CCCNC(=N)N)NC(=O)[C@H](CCCNC(=N)N)NC(=O)[C@H](CCCNC(=N)N)NC(=O)[C@H](CCCNC(=N)N)NC(=O)[C@H](CCCNC(=N)N)NC(=O)[C@H](CCCNC(=N)N)NC(=O)[C@H](CCCNC(=N)N)NC(=O)[C@H](CCCNC(=N)N)NC(=O)[C@H](CCCNC(=N)N)NC(=O)[C@H](CCCNC(=N)N)NC(=O)[C@H](CCCNC(=N)N)NC(=O)[C@@H](N)CS)C(=O)N[C@@H](CS)C(=O)O [CPolyArg12C] |  | 
26.74 | 22.23 | NC(N)=NCCC[C@H](NC(=O)[C@H](CCCN=C(N)N)NC(=O)[C@H](CCCN=C(N)N)NC(=O)[C@H](CCCN=C(N)N)NC(=O)[C@H](CCCN=C(N)N)NC(=O)[C@@H](N)CCCN=C(N)N)C(=O)O [PolyArg6, RRRRRR] |  | 
25.99 | 31.12 | N=C(N)NCCC[C@H](NC(=O)[C@H](CCCNC(=N)N)NC(=O)[C@H](CCCNC(=N)N)NC(=O)[C@H](CCCNC(=N)N)NC(=O)[C@H](CCCNC(=N)N)NC(=O)[C@H](CCCNC(=N)N)NC(=O)[C@H](CCCNC(=N)N)NC(=O)[C@H](CCCNC(=N)N)NC(=O)[C@H](CCCNC(=N)N)NC(=O)[C@H](CCCNC(=N)N)NC(=O)[C@H](CCCNC(=N)N)NC(=O)[C@@H](N)CCCNC(=N)N)C(=O)N[C@@H](CS)C(=O)O [PolyArg12C] |  | 
18.95 | 12.98 | NCCCNCCCCNCCCN [Spermine, reference compound] |  | 
19.96 | 19.2 | RRRRRRRRRRRR-[NHS Ester-BranchedPEG2kda] [PolyArg12bp2kDa] |  | 
19.21 | 16.9 | RTRRTRRTRRTRRTRRTR [PolyArg12Tinsert] |  | 
25.6 | 18.06 | TTTTTTRRRRRRRRRRRR [T6PolyArg12] |  | 

Continued, compound first:

Compound | Serum Stability at N/P1 [1] [h] | Serum Stability at N/P2 [1] [h] | delivery to the tumor (IR-750 fluorescence) [2] | liver and kidney delivery (IR-750 fluorescence) [2]
M048 Alone: miR-30 mimic duplex M30m3 without polymer; guide SEQ ID NO: 38, passenger SEQ ID NO: 39 (guide UGUAAACAUCCUGCGACUGGAAG; sense UCCAGUCGAGGAUGUUUACA; modified_base 11 cm; modified_base 14 cm; modified_base 17 cm; modified_base 12 um; modified_base 18 um; modified_base 13 gm; modified_base 15 gm; modified_base 19 gm; modified_base 23 gm; modified_base 16 OTHER; 2'-O-methyladenosine; modified_base 22 OTHER; 2'-fluoroadenosine; misc_feature 21..22 phosphorothioate linkage; misc_feature 22..23 phosphorothioate linkage; misc_feature 1 amino C6 linker; modified_base 1 um; modified_base 2 cm; modified_base 3 cm; modified_base 19 cm; modified_base 18 OTHER; modified_base 20 OTHER) | 21.57 |  |  | 
[PEG12]RRRRRR [PEG12PolyArg6] | 19.74 | 27.96 |  | 
[PEG12]RRRRRRRRRRRR (N-terminal PEG12; MOD_RES 1 N-terminal PEG12 spacer) [PEG12PolyArg12] |  |  | markedly improves delivery to the tumor | reduces liver and kidney delivery
[PEG12]RdRdRdRdRdRdRdRdRd [PEG12PolyArg9d] | 24.7 | 29.03 |  | 
[PEG12]RdRdRdRdRdRdRdRdRdRdRdRd (RRRRRRRRRRRR; N-terminal PEG12; D-arginines; MOD_RES 1 N-terminal PEG12 spacer; MOD_RES 1..12 D-Arginine) [PEG12PolyArg12{d}] | 57.63 | 90.35 |  | 
[PEG12][PEG12]RRRRRRRRRRRR (N-terminal PEG24; MOD_RES 1 N-terminal PEG24 spacer) [PEP24PolyArg12] | 21.21 | 39.41 |  | 
[PEG1000]-RRRRRRRRRRRR (PEG1000-RRRRRRRRRRRR) [PEG1000DaPolyArg12] | 33.58 | 20.29 |  | 
[PEG2000]-RRRRRRRRRRRR (PEG2000-RRRRRRRRRRRR) [PEG2000DaPolyArg12] | 15 | 46.67 |  | 
[PEG5000]-RRRRRRRRRRRR (PEG5000-RRRRRRRRRRRR) [PEG5000DaPolyArg12] | 14.08 | 20.91 |  | 
